Data from the NIST ThermoML archive (doi:10.1016/j.fluid.2019.02.006).
Numbers after ± are expanded uncertainties. Values belong to the compound of their own block, whether it stands above or below them.

Experiments:
[1] = 298.15 K; 100 kPa; Liquid; Vibrating tube method
[2] = xn = mol fraction of the nth substance listed; conditions: 298.15 K, 100 kPa, Liquid, Vibrating tube method

mass density [1]: 773.6 ± 1 kg/m3
SMILES: C1CCCCC1 [cyclohexane]

mass density [1]: 824 ± 1 kg/m3
SMILES: CCCCCCCCCO [nonan-1-ol]

mass density [1]: 818.7 ± 1 kg/m3
SMILES: CCCCCCCO [heptan-1-ol]

mass density [1]: 810.8 ± 1 kg/m3
SMILES: CCCCCO [pentan-1-ol]

mass density ([2]; x1 = 1): 773.6 ± 1 kg/m3
SMILES: C1CCCCC1 [cyclohexane] + CCCCCCCCO

mass density ([2]; x1 = 1): 773.6 ± 1 kg/m3
SMILES: C1CCCCC1 [cyclohexane] + CCCCCCO

mass density ([2]; x1 = 1): 773.6 ± 1 kg/m3
SMILES: C1CCCCC1 [cyclohexane] + CCCCCO

mass density ([2]; x2 = 0): 821.4 ± 1 kg/m3
mass density ([2]; x2 = 0.0815): 818.3 ± 1 kg/m3
mass density ([2]; x2 = 0.1602): 815.1 ± 1 kg/m3
mass density ([2]; x2 = 0.2408): 811.7 ± 1 kg/m3
mass density ([2]; x2 = 0.3494): 806.9 ± 1 kg/m3
mass density ([2]; x2 = 0.4398): 802.7 ± 1 kg/m3
mass density ([2]; x2 = 0.5605): 796.8 ± 1 kg/m3
mass density ([2]; x2 = 0.6496): 792.4 ± 1 kg/m3
mass density ([2]; x2 = 0.7404): 787.8 ± 1 kg/m3
mass density ([2]; x2 = 0.8495): 782 ± 1 kg/m3
mass density ([2]; x2 = 0.94): 777 ± 1 kg/m3
SMILES: CCCCCCCCO [octan-1-ol] + C1CCCCC1

mass density ([2]; x1 = 1): 773.6 ± 1 kg/m3
SMILES: C1CCCCC1 [cyclohexane] + CCCCCCCCCO

mass density [1]: 821.4 ± 1 kg/m3
SMILES: CCCCCCCCO [octan-1-ol]

Continued, compound first:

SMILES: CCCCCCCCCCO [decan-1-ol] + C1CCCCC1
mass density ([2]; x2 = 0): 826.1 ± 1 kg/m3
mass density ([2]; x2 = 0.0819): 823.7 ± 1 kg/m3
mass density ([2]; x2 = 0.1596): 820.8 ± 1 kg/m3
mass density ([2]; x2 = 0.2401): 817.6 ± 1 kg/m3
mass density ([2]; x2 = 0.3482): 812.9 ± 1 kg/m3
mass density ([2]; x2 = 0.4395): 808.7 ± 1 kg/m3
mass density ([2]; x2 = 0.5598): 802.6 ± 1 kg/m3
mass density ([2]; x2 = 0.6498): 797.6 ± 1 kg/m3
mass density ([2]; x2 = 0.7404): 792.3 ± 1 kg/m3
mass density ([2]; x2 = 0.849): 785.2 ± 1 kg/m3
mass density ([2]; x2 = 0.9394): 778.6 ± 1 kg/m3

SMILES: CCCCCO [pentan-1-ol] + C1CCCCC1
mass density ([2]; x2 = 0): 810.8 ± 1 kg/m3
mass density ([2]; x2 = 0.081): 807.1 ± 1 kg/m3
mass density ([2]; x2 = 0.1607): 803.6 ± 1 kg/m3
mass density ([2]; x2 = 0.2403): 800.1 ± 1 kg/m3
mass density ([2]; x2 = 0.3487): 795.4 ± 1 kg/m3
mass density ([2]; x2 = 0.4396): 791.7 ± 1 kg/m3
mass density ([2]; x2 = 0.5597): 787 ± 1 kg/m3
mass density ([2]; x2 = 0.6498): 783.7 ± 1 kg/m3
mass density ([2]; x2 = 0.7408): 780.6 ± 1 kg/m3
mass density ([2]; x2 = 0.8499): 777.1 ± 1 kg/m3
mass density ([2]; x2 = 0.9406): 774.8 ± 1 kg/m3

SMILES: CCCCCCO [hexan-1-ol] + C1CCCCC1
mass density ([2]; x2 = 0): 815.1 ± 1 kg/m3
mass density ([2]; x2 = 0.0811): 811.6 ± 1 kg/m3
mass density ([2]; x2 = 0.1597): 808.2 ± 1 kg/m3
mass density ([2]; x2 = 0.2415): 804.6 ± 1 kg/m3
mass density ([2]; x2 = 0.3498): 799.8 ± 1 kg/m3
mass density ([2]; x2 = 0.4412): 795.8 ± 1 kg/m3
mass density ([2]; x2 = 0.5588): 790.7 ± 1 kg/m3
mass density ([2]; x2 = 0.65): 786.8 ± 1 kg/m3
mass density ([2]; x2 = 0.7404): 783.2 ± 1 kg/m3
mass density ([2]; x2 = 0.8499): 778.8 ± 1 kg/m3
mass density ([2]; x2 = 0.9398): 775.6 ± 1 kg/m3

SMILES: CCCCCCCO [heptan-1-ol] + C1CCCCC1
mass density ([2]; x2 = 0): 818.7 ± 1 kg/m3
mass density ([2]; x2 = 0.0805): 815.5 ± 1 kg/m3
mass density ([2]; x2 = 0.1601): 812.1 ± 1 kg/m3
mass density ([2]; x2 = 0.2392): 808.7 ± 1 kg/m3
mass density ([2]; x2 = 0.3503): 803.7 ± 1 kg/m3
mass density ([2]; x2 = 0.4391): 799.7 ± 1 kg/m3
mass density ([2]; x2 = 0.5604): 794 ± 1 kg/m3
mass density ([2]; x2 = 0.6502): 789.8 ± 1 kg/m3
mass density ([2]; x2 = 0.7396): 785.7 ± 1 kg/m3
mass density ([2]; x2 = 0.8497): 780.5 ± 1 kg/m3
mass density ([2]; x2 = 0.94): 776.4 ± 1 kg/m3

SMILES: C1CCCCC1 [cyclohexane] + CCCCCCCO
mass density ([2]; x1 = 1): 773.6 ± 1 kg/m3

SMILES: CCCCCCCCCO [nonan-1-ol] + C1CCCCC1
mass density ([2]; x2 = 0): 824 ± 1 kg/m3
mass density ([2]; x2 = 0.0817): 821.1 ± 1 kg/m3
mass density ([2]; x2 = 0.1605): 818 ± 1 kg/m3
mass density ([2]; x2 = 0.2409): 814.7 ± 1 kg/m3
mass density ([2]; x2 = 0.3496): 810 ± 1 kg/m3
mass density ([2]; x2 = 0.4399): 805.8 ± 1 kg/m3
mass density ([2]; x2 = 0.5606): 799.8 ± 1 kg/m3
mass density ([2]; x2 = 0.6497): 795.1 ± 1 kg/m3
mass density ([2]; x2 = 0.7406): 790 ± 1 kg/m3
mass density ([2]; x2 = 0.8497): 783.6 ± 1 kg/m3
mass density ([2]; x2 = 0.9403): 777.8 ± 1 kg/m3

SMILES: CCCCCCO [hexan-1-ol]
mass density [1]: 815.1 ± 1 kg/m3

SMILES: CCCCCCCCCCO [decan-1-ol]
mass density [1]: 826.1 ± 1 kg/m3

SMILES: C1CCCCC1 [cyclohexane] + CCCCCCCCCCO
mass density ([2]; x1 = 1): 773.6 ± 1 kg/m3
